From ChEMBL document CHEMBL1201862, “PubChem BioAssay data set” (2004)
Activity calls are given as the source filed them.

Columns and labels:
[1] = target: T1, Sentrin-specific protease 8 (Homo sapiens, UniProt Q96LD8); assay type: functional;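 further: luminescence read-out of SENP8 inhibition, dose-response confirmation following an ultra-high-throughput screen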
T1 sequence (Q96LD8 whole entry): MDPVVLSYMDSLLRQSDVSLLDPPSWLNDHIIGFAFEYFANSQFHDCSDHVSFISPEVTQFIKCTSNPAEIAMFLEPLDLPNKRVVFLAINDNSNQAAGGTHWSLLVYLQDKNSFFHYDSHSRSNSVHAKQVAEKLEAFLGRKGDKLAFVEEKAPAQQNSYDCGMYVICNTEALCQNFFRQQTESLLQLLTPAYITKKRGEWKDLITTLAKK

[2] = target: T2, Sentrin-specific protease 7 (Homo sapiens, UniProt Q9BQF6); assay type: functional;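 further: Luminescence-based dose-response confirmation of ultra-high-throughput screening hits, measuring inhibition of SENP7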
T2 sequence (Q9BQF6 whole entry): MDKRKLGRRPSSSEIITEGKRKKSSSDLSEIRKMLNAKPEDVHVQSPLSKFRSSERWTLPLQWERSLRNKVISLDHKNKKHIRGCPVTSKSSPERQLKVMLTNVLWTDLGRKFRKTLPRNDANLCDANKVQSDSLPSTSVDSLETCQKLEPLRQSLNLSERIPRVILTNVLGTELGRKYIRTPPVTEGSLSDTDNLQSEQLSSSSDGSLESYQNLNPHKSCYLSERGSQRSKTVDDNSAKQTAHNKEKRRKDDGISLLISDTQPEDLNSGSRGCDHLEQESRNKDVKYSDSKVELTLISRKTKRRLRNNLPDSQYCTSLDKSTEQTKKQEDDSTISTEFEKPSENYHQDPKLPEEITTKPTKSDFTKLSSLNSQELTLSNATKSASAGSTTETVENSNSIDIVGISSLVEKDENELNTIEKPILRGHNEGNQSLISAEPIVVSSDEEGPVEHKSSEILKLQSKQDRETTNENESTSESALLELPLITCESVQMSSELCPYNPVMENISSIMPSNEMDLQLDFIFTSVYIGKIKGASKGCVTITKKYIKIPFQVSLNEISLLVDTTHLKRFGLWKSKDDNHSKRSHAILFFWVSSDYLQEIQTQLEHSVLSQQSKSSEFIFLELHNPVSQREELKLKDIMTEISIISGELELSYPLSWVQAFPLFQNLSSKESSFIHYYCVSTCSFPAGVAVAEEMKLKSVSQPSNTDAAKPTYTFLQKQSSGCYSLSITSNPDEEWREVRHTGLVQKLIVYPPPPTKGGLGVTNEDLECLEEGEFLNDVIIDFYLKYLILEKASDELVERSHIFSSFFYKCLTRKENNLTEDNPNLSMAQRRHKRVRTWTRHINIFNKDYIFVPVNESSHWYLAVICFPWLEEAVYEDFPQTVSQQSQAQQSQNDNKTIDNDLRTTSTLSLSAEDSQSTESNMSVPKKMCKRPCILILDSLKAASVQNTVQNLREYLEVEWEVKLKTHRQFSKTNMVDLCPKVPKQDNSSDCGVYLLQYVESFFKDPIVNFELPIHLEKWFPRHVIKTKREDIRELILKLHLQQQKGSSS

[3] = target: Serine/threonine-protein kinase PAK 1 (Homo sapiens, UniProt Q13153); assay type: functional
[4] = target: Macrophage colony-stimulating factor 1 receptor (Homo sapiens, UniProt P07333); assay type: functional;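 further: value comes from the Navigating the Kinome screening panel, CSF1R member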
[5] = target: Tyrosine-protein kinase Lyn (Homo sapiens, UniProt P07948); assay type: functional;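 further: lyn as one member of a kinase panel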
[6] = target: Casein kinase II subunit alpha (Homo sapiens, UniProt P68400); assay type: functional
[7] = target: Mitogen-activated protein kinase 13 (Homo sapiens, UniProt O15264); assay type: functional
[8] = target: Inhibitor of nuclear factor kappa-B kinase subunit alpha (Homo sapiens, UniProt O15111); assay type: functional
[9] = target: Hepatocyte growth factor receptor (Homo sapiens, UniProt P08581); assay type: functional;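 further: kinase panel profiling across the kinome, with MET as the panel member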
[10] = target: Ribosomal protein S6 kinase beta-1 (Homo sapiens, UniProt P23443); assay type: functional;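 further: measured as one member of a kinome-wide profiling panel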
Ephrin type-A receptor 2 = Ephrin type-A receptor 2 (Homo sapiens, UniProt P29317); assay type: functional;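 further: EPHA2 tested as one member of a kinome-wide kinase panel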
BJ [11] = assay: cells; assay type: functional, cell-based; conditions: Homo sapiens
Bcl-2-related protein A1 = target: T3, Bcl-2-related protein A1 (Mus musculus, UniProt Q07440); assay type: functional;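 further: confirmatory dose–response counterscreen on Bfl-1, used to check hits from a UBC13 polyubiquitin inhibitor campaign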
T3 sequence (Q07440 whole entry): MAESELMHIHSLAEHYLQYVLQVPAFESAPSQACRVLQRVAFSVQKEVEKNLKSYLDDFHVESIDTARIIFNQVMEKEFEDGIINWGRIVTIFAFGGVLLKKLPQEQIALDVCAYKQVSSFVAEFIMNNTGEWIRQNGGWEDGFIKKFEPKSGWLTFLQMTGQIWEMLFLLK

BJ [12] = assay: BJ-TERT fibroblast viability loss – cell-based, RAS-independent, luminescence, dose response (AID 1933); assay type: functional; conditions: Homo sapiens
INS1 = assay: INS-1E survival protection against cytokine death – cell-based, luminescence, retest, dose response (AID 449756); assay type: functional; conditions: Rattus norvegicus;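 further: cell death triggered by IL-1 beta plus TNF-alpha plus IFN-gamma mixture; protective hits raise ATP signal compared with cytokine alone wells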
[13] = toxicity toward cultured mammalian cells – cell-based, plate reader, cherry-pick samples, cytotoxicity control, dose response (AID 504397); assay type: functional

Mitogen-activated protein kinase 13, sequence (O15264 whole entry): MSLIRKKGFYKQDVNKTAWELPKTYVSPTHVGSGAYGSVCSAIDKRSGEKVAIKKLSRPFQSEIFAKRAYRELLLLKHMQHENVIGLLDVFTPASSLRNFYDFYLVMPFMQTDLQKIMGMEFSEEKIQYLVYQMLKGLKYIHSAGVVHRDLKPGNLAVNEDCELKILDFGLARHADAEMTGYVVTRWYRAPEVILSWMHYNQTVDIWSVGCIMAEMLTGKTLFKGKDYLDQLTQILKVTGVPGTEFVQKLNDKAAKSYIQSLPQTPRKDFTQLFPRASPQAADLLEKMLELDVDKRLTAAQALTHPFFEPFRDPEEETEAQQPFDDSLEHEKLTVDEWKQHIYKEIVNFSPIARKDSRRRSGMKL
Inhibitor of nuclear factor kappa-B kinase subunit alpha, sequence (O15111 whole entry): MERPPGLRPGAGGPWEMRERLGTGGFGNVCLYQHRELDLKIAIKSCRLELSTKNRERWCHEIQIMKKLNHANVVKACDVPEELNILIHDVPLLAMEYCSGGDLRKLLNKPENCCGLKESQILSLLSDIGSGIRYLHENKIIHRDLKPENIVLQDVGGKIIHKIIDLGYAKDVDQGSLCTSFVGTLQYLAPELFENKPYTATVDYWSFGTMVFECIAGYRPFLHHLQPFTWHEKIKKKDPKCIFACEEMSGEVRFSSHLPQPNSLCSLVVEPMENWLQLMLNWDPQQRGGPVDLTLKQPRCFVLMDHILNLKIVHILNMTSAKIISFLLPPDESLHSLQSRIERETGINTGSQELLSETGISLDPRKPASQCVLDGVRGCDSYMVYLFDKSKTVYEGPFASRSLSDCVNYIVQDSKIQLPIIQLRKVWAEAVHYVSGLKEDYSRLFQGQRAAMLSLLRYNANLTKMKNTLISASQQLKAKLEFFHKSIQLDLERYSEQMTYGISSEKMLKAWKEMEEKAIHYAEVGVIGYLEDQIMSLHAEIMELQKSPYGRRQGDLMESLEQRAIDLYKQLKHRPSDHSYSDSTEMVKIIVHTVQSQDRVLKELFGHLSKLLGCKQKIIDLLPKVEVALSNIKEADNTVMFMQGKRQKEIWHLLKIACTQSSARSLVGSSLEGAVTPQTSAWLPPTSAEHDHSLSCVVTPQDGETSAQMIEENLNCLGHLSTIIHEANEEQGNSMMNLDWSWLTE
Macrophage colony-stimulating factor 1 receptor, sequence (P07333 whole entry): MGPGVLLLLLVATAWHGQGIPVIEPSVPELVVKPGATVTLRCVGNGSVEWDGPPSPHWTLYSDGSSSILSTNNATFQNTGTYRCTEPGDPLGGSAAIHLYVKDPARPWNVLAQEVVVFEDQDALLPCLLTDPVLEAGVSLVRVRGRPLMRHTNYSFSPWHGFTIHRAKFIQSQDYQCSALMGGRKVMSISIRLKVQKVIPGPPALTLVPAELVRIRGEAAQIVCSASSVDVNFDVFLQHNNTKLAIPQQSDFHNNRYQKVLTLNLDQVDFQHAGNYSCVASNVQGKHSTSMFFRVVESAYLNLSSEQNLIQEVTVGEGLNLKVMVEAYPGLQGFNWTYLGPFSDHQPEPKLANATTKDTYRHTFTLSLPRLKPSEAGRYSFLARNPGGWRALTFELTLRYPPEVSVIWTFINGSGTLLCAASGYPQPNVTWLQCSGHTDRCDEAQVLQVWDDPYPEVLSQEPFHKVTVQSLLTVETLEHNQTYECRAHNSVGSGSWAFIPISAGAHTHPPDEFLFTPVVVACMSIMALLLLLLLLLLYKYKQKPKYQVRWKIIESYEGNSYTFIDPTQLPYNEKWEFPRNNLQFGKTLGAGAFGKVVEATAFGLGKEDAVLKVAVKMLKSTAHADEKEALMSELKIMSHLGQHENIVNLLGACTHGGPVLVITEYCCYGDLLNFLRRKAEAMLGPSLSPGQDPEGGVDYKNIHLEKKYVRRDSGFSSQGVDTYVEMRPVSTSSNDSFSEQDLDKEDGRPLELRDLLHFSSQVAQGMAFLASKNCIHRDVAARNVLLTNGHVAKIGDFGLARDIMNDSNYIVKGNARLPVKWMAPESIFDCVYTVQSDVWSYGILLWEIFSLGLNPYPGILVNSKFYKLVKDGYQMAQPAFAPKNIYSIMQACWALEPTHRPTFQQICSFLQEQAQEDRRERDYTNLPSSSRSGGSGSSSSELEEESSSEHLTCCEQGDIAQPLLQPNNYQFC
Serine/threonine-protein kinase PAK 1, sequence (Q13153 whole entry): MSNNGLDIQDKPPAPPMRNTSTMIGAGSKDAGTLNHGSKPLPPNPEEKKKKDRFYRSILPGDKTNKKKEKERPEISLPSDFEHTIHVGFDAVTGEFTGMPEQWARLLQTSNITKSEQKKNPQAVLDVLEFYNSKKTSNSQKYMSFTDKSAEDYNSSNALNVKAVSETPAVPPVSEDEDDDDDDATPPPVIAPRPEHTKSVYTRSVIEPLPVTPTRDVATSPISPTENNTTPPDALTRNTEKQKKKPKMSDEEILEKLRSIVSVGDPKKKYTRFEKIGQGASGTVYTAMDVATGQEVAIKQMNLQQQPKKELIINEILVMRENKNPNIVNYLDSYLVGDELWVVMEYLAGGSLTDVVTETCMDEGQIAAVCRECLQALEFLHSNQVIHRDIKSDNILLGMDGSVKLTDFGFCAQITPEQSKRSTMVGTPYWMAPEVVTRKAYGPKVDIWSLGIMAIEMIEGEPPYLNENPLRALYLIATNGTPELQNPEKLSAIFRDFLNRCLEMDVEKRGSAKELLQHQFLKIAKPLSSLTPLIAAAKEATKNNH
Ribosomal protein S6 kinase beta-1, sequence (P23443 whole entry): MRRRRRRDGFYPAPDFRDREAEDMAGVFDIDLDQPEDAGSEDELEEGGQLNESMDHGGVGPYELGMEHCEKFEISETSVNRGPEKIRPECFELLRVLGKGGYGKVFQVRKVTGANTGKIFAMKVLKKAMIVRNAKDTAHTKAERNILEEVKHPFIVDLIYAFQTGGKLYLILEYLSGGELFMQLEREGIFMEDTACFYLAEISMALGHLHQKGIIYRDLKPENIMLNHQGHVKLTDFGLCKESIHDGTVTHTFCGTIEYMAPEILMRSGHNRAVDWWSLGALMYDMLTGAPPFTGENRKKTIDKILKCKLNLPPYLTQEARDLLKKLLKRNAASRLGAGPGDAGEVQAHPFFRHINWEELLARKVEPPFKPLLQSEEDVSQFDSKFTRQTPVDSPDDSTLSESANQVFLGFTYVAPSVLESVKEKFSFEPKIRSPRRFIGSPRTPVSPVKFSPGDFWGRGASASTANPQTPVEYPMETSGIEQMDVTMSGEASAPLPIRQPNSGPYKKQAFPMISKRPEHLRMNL
Casein kinase II subunit alpha, sequence (P68400 whole entry): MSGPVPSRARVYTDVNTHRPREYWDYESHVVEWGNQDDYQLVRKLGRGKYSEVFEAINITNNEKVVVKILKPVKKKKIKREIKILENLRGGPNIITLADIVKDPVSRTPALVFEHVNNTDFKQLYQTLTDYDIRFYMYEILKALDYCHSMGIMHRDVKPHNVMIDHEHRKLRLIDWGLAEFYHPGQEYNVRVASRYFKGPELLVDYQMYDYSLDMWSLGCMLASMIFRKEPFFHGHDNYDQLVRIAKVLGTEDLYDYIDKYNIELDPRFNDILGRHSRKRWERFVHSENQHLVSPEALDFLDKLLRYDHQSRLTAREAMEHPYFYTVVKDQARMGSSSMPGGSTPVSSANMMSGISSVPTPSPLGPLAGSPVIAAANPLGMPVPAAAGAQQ
Tyrosine-protein kinase Lyn, sequence (P07948 whole entry): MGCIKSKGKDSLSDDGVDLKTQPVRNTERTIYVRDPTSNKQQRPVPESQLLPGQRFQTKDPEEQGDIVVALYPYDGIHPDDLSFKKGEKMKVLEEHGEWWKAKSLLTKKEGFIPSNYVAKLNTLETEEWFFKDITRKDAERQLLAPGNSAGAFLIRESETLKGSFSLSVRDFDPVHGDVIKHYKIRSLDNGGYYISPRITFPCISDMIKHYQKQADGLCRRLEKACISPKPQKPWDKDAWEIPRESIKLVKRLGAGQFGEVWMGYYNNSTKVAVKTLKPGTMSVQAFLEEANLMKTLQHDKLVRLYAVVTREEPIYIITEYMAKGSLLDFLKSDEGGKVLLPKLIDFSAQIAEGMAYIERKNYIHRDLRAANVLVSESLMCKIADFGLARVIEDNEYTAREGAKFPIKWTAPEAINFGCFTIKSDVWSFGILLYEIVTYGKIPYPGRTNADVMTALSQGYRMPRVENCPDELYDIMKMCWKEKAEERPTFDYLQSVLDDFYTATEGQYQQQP
Ephrin type-A receptor 2, sequence (P29317 whole entry): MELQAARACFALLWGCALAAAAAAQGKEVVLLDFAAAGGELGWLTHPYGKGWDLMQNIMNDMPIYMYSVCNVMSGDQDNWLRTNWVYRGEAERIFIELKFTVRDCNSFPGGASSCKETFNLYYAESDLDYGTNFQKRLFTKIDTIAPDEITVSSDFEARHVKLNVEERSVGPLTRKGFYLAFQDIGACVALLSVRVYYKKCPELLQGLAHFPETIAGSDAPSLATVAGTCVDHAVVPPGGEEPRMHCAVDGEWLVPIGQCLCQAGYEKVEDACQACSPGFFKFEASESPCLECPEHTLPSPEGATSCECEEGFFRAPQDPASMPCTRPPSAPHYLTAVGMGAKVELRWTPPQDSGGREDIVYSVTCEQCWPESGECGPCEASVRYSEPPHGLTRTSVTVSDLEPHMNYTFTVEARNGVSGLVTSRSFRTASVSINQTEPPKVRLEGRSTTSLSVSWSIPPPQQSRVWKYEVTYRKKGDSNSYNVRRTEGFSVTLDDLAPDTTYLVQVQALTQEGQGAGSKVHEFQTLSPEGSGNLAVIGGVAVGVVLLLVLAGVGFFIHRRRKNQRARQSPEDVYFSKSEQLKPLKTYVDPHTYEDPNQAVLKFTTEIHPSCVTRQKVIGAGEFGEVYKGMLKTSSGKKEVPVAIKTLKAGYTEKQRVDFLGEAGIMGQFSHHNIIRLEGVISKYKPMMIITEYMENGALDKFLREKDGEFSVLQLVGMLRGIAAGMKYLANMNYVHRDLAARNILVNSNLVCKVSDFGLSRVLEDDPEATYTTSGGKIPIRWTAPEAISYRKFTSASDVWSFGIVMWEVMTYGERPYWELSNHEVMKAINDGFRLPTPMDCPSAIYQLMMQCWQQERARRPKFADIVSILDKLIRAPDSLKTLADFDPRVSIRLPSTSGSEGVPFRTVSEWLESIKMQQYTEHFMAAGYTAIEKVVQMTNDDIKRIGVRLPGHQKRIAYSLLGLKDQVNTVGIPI

SMILES: CCC(C)NC(=O)c1c(N)n(CCCOC)c2nc3ccccc3nc12 (stereo unspecified)
- IC50 [1]: 2060 nM (active)
- IC50 [2]: 1360 nM (active)

SMILES: CC(=NNC(=N)N)c1cc(NC(=O)NCCCCCCNC(=O)Nc2cc(C(C)=NNC(=N)N)cc(C(C)=NNC(=N)N)c2)cc(C(C)=NNC(=N)N)c1
- Ki [3]: 398 nM (active)
- Ki [4]: > 2510 nM (inactive)
- Ki [5]: > 1580 nM (inactive)
- Ki [6]: > 6310 nM (inactive)
- Ki [7]: > 7940 nM (inactive)
- Ki [8]: 501 nM (active)
- Ki [9]: 2510 nM (active)
- Ki [10]: 316 nM (active)
- Ki (Ephrin type-A receptor 2): > 3160 nM (inactive)

SMILES: Cc1cc(N)c2cc(NC(=O)/C=C/c3ccccc3Cl)ccc2n1
- EC50 (BJ [11]): 4790 nM (inconclusive)
- IC50 (Bcl-2-related protein A1): 18200 nM (active)
- EC50 (BJ [12]): 2620 nM (inconclusive)
- AC50 (INS1): 3830 nM (active)
- AC50 [13]: 4260 nM (active)
